Laboratory results: the NIST ThermoML archive (doi:10.1016/j.jct.2007.04.002)
± gives the expanded uncertainty stated by the source.

Assays:
[1] = 101.33 kPa, Liquid, Not reported.
[2] = excess molar enthalpy (molar enthalpy of mixing); xn = mol fraction of the nth substance listed; conditions: 101 kPa, Liquid, Calvet calorimetry

FC(F)(F)C(F)(F)C(F)(F)C(F)(F)C(F)(F)C(F)(F)F [perfluorohexane]
Conditions	molar volume [m3/mol]
[1], 288.05 K	0.0001982 ± 7e-07

FC(F)(F)C(F)(F)C(F)(F)C(F)(F)C(F)(F)C(F)(F)C(F)(F)C(F)(F)F [octadecafluorooctane] + CCCCCC
[2], 298.15 K
Conditions	excess molar enthalpy [kcal/mol]
x1 = 0.05	0.183 ± 0.00956
x1 = 0.1	0.303 ± 0.0098
x1 = 0.15	0.379 ± 0.01
x1 = 0.2	0.422 ± 0.01
x1 = 0.25	0.445 ± 0.01
x1 = 0.3	0.455 ± 0.01
x1 = 0.35	0.456 ± 0.01
x1 = 0.4	0.453 ± 0.01
x1 = 0.45	0.448 ± 0.01
x1 = 0.5	0.44 ± 0.01
x1 = 0.55	0.43 ± 0.01
x1 = 0.6	0.415 ± 0.01
x1 = 0.65	0.394 ± 0.01
x1 = 0.7	0.366 ± 0.01
x1 = 0.75	0.327 ± 0.0098
x1 = 0.8	0.279 ± 0.0098
x1 = 0.85	0.22 ± 0.0098
x1 = 0.9	0.152 ± 0.00956
x1 = 0.95	0.0767 ± 0.00956
x1 = 1	0 ± 0.00956

FC(F)(F)C(F)(F)C(F)(F)C(F)(F)C(F)(F)C(F)(F)F [perfluorohexane] + C1CCCCC1
[2], 298.15 K
Conditions	excess molar enthalpy [kcal/mol]
x1 = 0.05	0.177 ± 0.00956
x1 = 0.1	0.301 ± 0.0098
x1 = 0.15	0.385 ± 0.01
x1 = 0.2	0.44 ± 0.01
x1 = 0.25	0.475 ± 0.0103
x1 = 0.3	0.498 ± 0.0103
x1 = 0.35	0.513 ± 0.0103
x1 = 0.4	0.522 ± 0.0103
x1 = 0.45	0.528 ± 0.0103
x1 = 0.5	0.53 ± 0.0103
x1 = 0.55	0.528 ± 0.0103
x1 = 0.6	0.519 ± 0.0103
x1 = 0.65	0.503 ± 0.0103
x1 = 0.7	0.476 ± 0.0103
x1 = 0.75	0.436 ± 0.01
x1 = 0.8	0.382 ± 0.01
x1 = 0.85	0.311 ± 0.0098
x1 = 0.9	0.224 ± 0.0098
x1 = 0.95	0.12 ± 0.00956
x1 = 1	0 ± 0.00956

CCCCCC [hexane] + FC(F)(F)C(F)(F)C(F)(F)C(F)(F)C(F)(F)C(F)(F)F
Conditions	excess molar enthalpy [kcal/mol]
[2], 298.15 K, x2 = 0	0 ± 0.00956

FC(F)(F)C(F)(F)C(F)(F)C(F)(F)C(F)(F)C(F)(F)F [perfluorohexane] + CCCCC
[2], 293.15 K
Conditions	excess molar enthalpy [kcal/mol]
x1 = 0.05	0.127 ± 0.00956
x1 = 0.1	0.225 ± 0.0098
x1 = 0.15	0.3 ± 0.0098
x1 = 0.2	0.357 ± 0.01
x1 = 0.25	0.399 ± 0.01
x1 = 0.3	0.431 ± 0.01
x1 = 0.35	0.453 ± 0.01
x1 = 0.4	0.467 ± 0.0103
x1 = 0.45	0.475 ± 0.0103
x1 = 0.5	0.476 ± 0.0103
x1 = 0.55	0.47 ± 0.0103
x1 = 0.6	0.457 ± 0.01
x1 = 0.65	0.435 ± 0.01
x1 = 0.7	0.405 ± 0.01
x1 = 0.75	0.365 ± 0.01
x1 = 0.8	0.315 ± 0.0098
x1 = 0.85	0.253 ± 0.0098
x1 = 0.9	0.18 ± 0.00956
x1 = 0.95	0.0954 ± 0.00956
x1 = 1	0 ± 0.00956

CCCCCC(C)C [2-methylheptane]
[1]
Conditions	molar volume [m3/mol]
288.05 K	0.0001626 ± 3.3e-07
298.15 K	0.0001636 ± 3.3e-07

CCCCCC(C)C [2-methylheptane] + FC(F)(F)C(F)(F)C(F)(F)C(F)(F)C(F)(F)C(F)(F)F
excess molar enthalpy [kcal/mol], [2]
Conditions	288.05 K	298.15 K
x2 = 0	0 ± 0.00956	0 ± 0.00956
x2 = 0.05	0.124 ± 0.00956	0.129 ± 0.00956
x2 = 0.1	0.223 ± 0.0098	0.231 ± 0.0098
x2 = 0.15	0.3 ± 0.0098	0.313 ± 0.0098
x2 = 0.2	0.359 ± 0.01	0.376 ± 0.01
x2 = 0.25	0.404 ± 0.01	0.425 ± 0.01
x2 = 0.3	0.438 ± 0.01	0.462 ± 0.0103
x2 = 0.35	0.462 ± 0.0103	0.488 ± 0.0103
x2 = 0.4	0.478 ± 0.0103	0.506 ± 0.0103
x2 = 0.45	0.488 ± 0.0103	0.516 ± 0.0103
x2 = 0.5	0.491 ± 0.0103	0.52 ± 0.0103
x2 = 0.55	0.488 ± 0.0103	0.516 ± 0.0103
x2 = 0.6	0.478 ± 0.0103	0.505 ± 0.0103
x2 = 0.65	0.461 ± 0.0103	0.487 ± 0.0103
x2 = 0.7	0.436 ± 0.01	0.46 ± 0.01
x2 = 0.75	0.401 ± 0.01	0.422 ± 0.01
x2 = 0.8	0.354 ± 0.01	0.372 ± 0.01
x2 = 0.85	0.293 ± 0.0098	0.307 ± 0.0098
x2 = 0.9	0.216 ± 0.0098	0.226 ± 0.0098
x2 = 0.95	0.119 ± 0.00956	0.124 ± 0.00956

CCCCCCC [heptane] + FC(F)(F)C(F)(F)C(F)(F)C(F)(F)C(F)(F)C(F)(F)F
Conditions	excess molar enthalpy [kcal/mol]
[2], 298.15 K, x2 = 0	0 ± 0.00956

C1CCCCC1 [cyclohexane] + FC(F)(F)C(F)(F)C(F)(F)C(F)(F)C(F)(F)C(F)(F)F
Conditions	excess molar enthalpy [kcal/mol]
[2], 298.15 K, x2 = 0	0 ± 0.00956

CCCCCC [hexane] + FC(F)(F)C(F)(F)C(F)(F)C(F)(F)C(F)(F)C(F)(F)C(F)(F)C(F)(F)F
Conditions	excess molar enthalpy [kcal/mol]
[2], 298.15 K, x2 = 0	0 ± 0.00956

FC(F)(F)C(F)(F)C(F)(F)C(F)(F)C(F)(F)C(F)(F)F [perfluorohexane] + CCCCCCCC
[2], 298.15 K
Conditions	excess molar enthalpy [kcal/mol]
x1 = 0.05	0.137 ± 0.00956
x1 = 0.1	0.24 ± 0.0098
x1 = 0.15	0.315 ± 0.0098
x1 = 0.2	0.368 ± 0.01
x1 = 0.25	0.404 ± 0.01
x1 = 0.3	0.428 ± 0.01
x1 = 0.35	0.443 ± 0.01
x1 = 0.4	0.452 ± 0.01
x1 = 0.45	0.457 ± 0.01
x1 = 0.5	0.458 ± 0.01
x1 = 0.55	0.457 ± 0.01
x1 = 0.6	0.452 ± 0.01
x1 = 0.65	0.442 ± 0.01
x1 = 0.7	0.426 ± 0.01
x1 = 0.75	0.401 ± 0.01
x1 = 0.8	0.363 ± 0.01
x1 = 0.85	0.309 ± 0.0098
x1 = 0.9	0.234 ± 0.0098
x1 = 0.95	0.133 ± 0.00956
x1 = 1	0 ± 0.00956

CCCCCC [hexane] + FC(F)(F)C(F)(F)C(F)(F)C(F)(F)C(F)(F)F
Conditions	excess molar enthalpy [kcal/mol]
[2], 293.15 K, x2 = 0	0 ± 0.00956

CCCCCC [hexane] + FC(F)(F)C(F)(F)C(F)(F)C(F)(F)C(F)(F)C(F)(F)C(F)(F)F
Conditions	excess molar enthalpy [kcal/mol]
[2], 298.15 K, x2 = 0	0 ± 0.00956

C1CCCCC1 [cyclohexane]
Conditions	molar volume [m3/mol]
[1], 298.15 K	0.0001086 ± 2.2e-07

CCCCC [pentane] + FC(F)(F)C(F)(F)C(F)(F)C(F)(F)C(F)(F)C(F)(F)F
Conditions	excess molar enthalpy [kcal/mol]
[2], 293.15 K, x2 = 0	0 ± 0.00956

FC(F)(F)C(F)(F)C(F)(F)C(F)(F)C(F)(F)C(F)(F)F [perfluorohexane] + CCCCCCC
[2], 298.15 K
Conditions	excess molar enthalpy [kcal/mol]
x1 = 0.05	0.135 ± 0.00956
x1 = 0.1	0.24 ± 0.0098
x1 = 0.15	0.321 ± 0.0098
x1 = 0.2	0.382 ± 0.01
x1 = 0.25	0.429 ± 0.01
x1 = 0.3	0.463 ± 0.0103
x1 = 0.35	0.487 ± 0.0103
x1 = 0.4	0.504 ± 0.0103
x1 = 0.45	0.513 ± 0.0103
x1 = 0.5	0.516 ± 0.0103
x1 = 0.55	0.513 ± 0.0103
x1 = 0.6	0.503 ± 0.0103
x1 = 0.65	0.485 ± 0.0103
x1 = 0.7	0.459 ± 0.01
x1 = 0.75	0.421 ± 0.01
x1 = 0.8	0.371 ± 0.01
x1 = 0.85	0.307 ± 0.0098
x1 = 0.9	0.225 ± 0.0098
x1 = 0.95	0.124 ± 0.00956
x1 = 1	0 ± 0.00956

FC(F)(F)C(F)(F)C(F)(F)C(F)(F)C(F)(F)C(F)(F)F [perfluorohexane] + CCCCCC(C)C
[2], x1 = 1
Conditions	excess molar enthalpy [kcal/mol]
288.05 K	0 ± 0.00956
298.15 K	0 ± 0.00956

CCCCCCCC [octane] + FC(F)(F)C(F)(F)C(F)(F)C(F)(F)C(F)(F)C(F)(F)F
Conditions	excess molar enthalpy [kcal/mol]
[2], 298.15 K, x2 = 0	0 ± 0.00956

FC(F)(F)C(F)(F)C(F)(F)C(F)(F)C(F)(F)C(F)(F)C(F)(F)F [hexadecafluoroheptane] + CCCCCC
[2], 298.15 K
Conditions	excess molar enthalpy [kcal/mol]
x1 = 0.05	0.15 ± 0.00956
x1 = 0.1	0.258 ± 0.0098
x1 = 0.15	0.335 ± 0.0098
x1 = 0.2	0.39 ± 0.01
x1 = 0.25	0.429 ± 0.01
x1 = 0.3	0.456 ± 0.01
x1 = 0.35	0.474 ± 0.0103
x1 = 0.4	0.487 ± 0.0103
x1 = 0.45	0.495 ± 0.0103
x1 = 0.5	0.497 ± 0.0103
x1 = 0.55	0.495 ± 0.0103
x1 = 0.6	0.485 ± 0.0103
x1 = 0.65	0.467 ± 0.0103
x1 = 0.7	0.439 ± 0.01
x1 = 0.75	0.4 ± 0.01
x1 = 0.8	0.348 ± 0.0098
x1 = 0.85	0.281 ± 0.0098
x1 = 0.9	0.201 ± 0.0098
x1 = 0.95	0.107 ± 0.00956
x1 = 1	0 ± 0.00956

FC(F)(F)C(F)(F)C(F)(F)C(F)(F)C(F)(F)F [perfluoropentane] + CCCCCC
[2], 293.15 K
Conditions	excess molar enthalpy [kcal/mol]
x1 = 0.05	0.127 ± 0.00956
x1 = 0.1	0.224 ± 0.0098
x1 = 0.15	0.298 ± 0.0098
x1 = 0.2	0.352 ± 0.01
x1 = 0.25	0.392 ± 0.01
x1 = 0.3	0.42 ± 0.01
x1 = 0.35	0.439 ± 0.01
x1 = 0.4	0.451 ± 0.01
x1 = 0.45	0.456 ± 0.01
x1 = 0.5	0.455 ± 0.01
x1 = 0.55	0.449 ± 0.01
x1 = 0.6	0.436 ± 0.01
x1 = 0.65	0.416 ± 0.01
x1 = 0.7	0.388 ± 0.01
x1 = 0.75	0.352 ± 0.01
x1 = 0.8	0.305 ± 0.0098
x1 = 0.85	0.248 ± 0.0098
x1 = 0.9	0.178 ± 0.00956
x1 = 0.95	0.0956 ± 0.00956
x1 = 1	0 ± 0.00956

FC(F)(F)C(F)(F)C(F)(F)C(F)(F)C(F)(F)C(F)(F)F [perfluorohexane] + CCCCCC
[2], 298.15 K
Conditions	excess molar enthalpy [kcal/mol]
x1 = 0.05	0.133 ± 0.00956
x1 = 0.1	0.235 ± 0.0098
x1 = 0.15	0.313 ± 0.0098
x1 = 0.2	0.372 ± 0.01
x1 = 0.25	0.416 ± 0.01
x1 = 0.3	0.45 ± 0.01
x1 = 0.35	0.473 ± 0.0103
x1 = 0.4	0.49 ± 0.0103
x1 = 0.45	0.5 ± 0.0103
x1 = 0.5	0.503 ± 0.0103
x1 = 0.55	0.5 ± 0.0103
x1 = 0.6	0.489 ± 0.0103
x1 = 0.65	0.469 ± 0.0103
x1 = 0.7	0.441 ± 0.01
x1 = 0.75	0.401 ± 0.01
x1 = 0.8	0.35 ± 0.01
x1 = 0.85	0.285 ± 0.0098
x1 = 0.9	0.205 ± 0.0098
x1 = 0.95	0.11 ± 0.00956
x1 = 1	0 ± 0.00956
